Converted amounts (≈) assume the structure as drawn.
Experiments:
[1] = system: U87 MG (malignant glioma cell); assay: MTT growth inhibition of human solid tumor cells, 72 h; type: cell-based; settings: U87-MG, 72 h
How it was run: (§1)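 Growth medium: DMEM High Glucose, 10% FBS. Seeding density 4000 cells per well, preincubated one day at 37° C/5% CO2 before dosing with derivatives over a concentration range.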

[2] = system: MG63 (osteosarcoma); assay: as above; type: cell-based; settings: MG-63, 72 h
How it was run: as §1

[3] = system: PC-3 (prostate cancer); assay: as above; type: cell-based; settings: PC-3, 72 h
How it was run: as §1

[4] = system: RKO (human colon adenocarcinoma cell); assay: as above; type: cell-based
How it was run: as §1

[5] = system: Hela (human cervical cancer cell); assay: as above; type: cell-based; settings: Hela, 72 h
How it was run: as §1

[6] = system: SK-OV-3 (ovarian cancer cell); assay: as above; type: cell-based; settings: SK-OV-3, 72 h
How it was run: as §1

[7] = system: CNE (nasopharyngeal carcinoma cell); assay: as above; type: cell-based
How it was run: as §1

[8] = system: CaES-17 (esophageal cancer cell); assay: as above; type: cell-based; settings: CaEs-17, 72 h
How it was run: as §1

[9] = system: Hep-2 (laryngeal carcinoma); assay: as above; type: cell-based; settings: HeP-2, 72 h
How it was run: as §1

[10] = system: PANC-1 (pancreatic cancer); assay: as above; type: cell-based; settings: PANC-1, 72 h
How it was run: as §1

[11] = system: MGC 803 (human gastric cancer cell); assay: as above; type: cell-based; settings: MGC-803, 72 h
How it was run: as §1

[12] = system: A549 (human lung cancer); assay: as above; type: cell-based; settings: A549, 72 h
How it was run: as §1

[13] = system: Hep G2 (human liver cancer cell); assay: as above; type: cell-based; settings: Hep G2, 72 h
How it was run: as §1

[14] = system: Becap37 (human breast cancer cell); assay: as above; type: cell-based; settings: Becap-37, 72 h
How it was run: as §1

[15] = system: RPMI8226 (multiple myeloma); assay: MTT growth inhibition of multiple myeloma cells, 72 h; type: cell-based, human; settings: RPMI 8226, 72 h
How it was run: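 Viability read by MTT after 72 h at 37° C, 5% CO2: compounds from a 10 mg/mL DMSO stock were diluted in medium and added at several concentrations to 6000 RPMI8226 cells per well in 1640 medium plus 10% FBS.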

[16] = system: SGC-7901 human gastric adenocarcinoma cells; settings: concentration dependent within a certain range, literature; cited from earlier work
[17] = background statement; cited from earlier work
[18] = system: H9 (acute lymphoblastic leukemia, ALL); assay: MTT growth inhibition of leukemia cells, 72 h; type: cell-based, human; settings: H9, 72 h
How it was run: (§2)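 6000 cells/well, RPMI-1640 + 10% FBS; compounds added day 2 (DMSO stock 10 mg/mL, diluted in medium); 72 h, 37 °C, 5% CO2; MTT read-out of viable cells.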

[19] = system: NB4 (acute promyelocytic leukemia, AML); assay: MTT growth inhibition of leukemia cells, 72 h; type: cell-based, human; settings: NB4, 72 h
How it was run: as §2

[20] = system: K562/adr (drug-resistant, chronic myeloid leukemia, CML); assay: MTT growth inhibition of leukemia cells, 72 h; type: cell-based, human; settings: K562/ADR
How it was run: as §2

[21] = system: Kasumi-1 (acute myeloid leukemia M2 type, AML-M2); assay: MTT growth inhibition of leukemia cells, 72 h; type: cell-based, human; settings: Kasumi-1, 72 h
How it was run: as §2

[22] = system: Jurkat (acute lymphoblastic leukemia, ALL); assay: MTT growth inhibition of leukemia cells, 72 h; type: cell-based, human; settings: 72 h
How it was run: as §2

[23] = background statement; cited from earlier work; remark: listed apart in the source
[24] = system: tumor-bearing nude mice; settings: literature; cited from earlier work
[25] = system: Hep G2 cells; settings: in vitro, literature; cited from earlier work

IC50 [1]: 6.36 mg/L (≈ 23 µM)
IC90 [1]: 14.63 mg/L (≈ 53 µM)
IC50 [2]: 0.96 mg/L (≈ 3.47 µM)
IC90 [2]: >16 mg/L
IC50 [3]: 6.63 mg/L (≈ 24 µM)
IC90 [3]: 10.57 mg/L (≈ 38.3 µM)
IC50 [4]: 1.83 mg/L (≈ 6.62 µM)
IC90 [4]: >16 mg/L
IC50 [5]: 4 mg/L (≈ 14.5 µM)
IC90 [5]: >16 mg/L
IC50 [6]: >16 mg/L
IC90 [6]: >16 mg/L
IC50 [7]: 7.4 mg/L (≈ 26.8 µM)
IC90 [7]: >16 mg/L
IC50 [8]: 3.18 mg/L (≈ 11.5 µM)
IC90 [8]: 16.00 mg/L (≈ 57.9 µM)
IC50 [9]: 3.15 mg/L (≈ 11.4 µM)
IC90 [9]: >16 mg/L
IC50 [10]: 2.7 mg/L (≈ 9.77 µM)
IC90 [10]: >16 mg/L
IC50 [11]: 1.62 mg/L (≈ 5.86 µM)
IC90 [11]: 9.26 mg/L (≈ 33.5 µM)
IC50 [12]: 4.03 mg/L (≈ 14.6 µM)
IC90 [12]: 17.29 mg/L (≈ 62.6 µM)
IC50 [13]: 2.19 mg/L (≈ 7.93 µM)
IC90 [13]: 22.13 mg/L (≈ 80.1 µM)
IC50 [14]: 3.03 mg/L (≈ 11 µM)
IC90 [14]: >16 mg/L
IC50 [15]: 0.96 mg/L (≈ 3.47 µM)
IC90 [15]: 10.86 mg/L (≈ 39.3 µM)
IC50 [18]: 3.5 mg/L (≈ 12.7 µM)
IC90 [18]: 13.06 mg/L (≈ 47.3 µM)
IC50 [19]: 0.98 mg/L (≈ 3.55 µM)
IC90 [19]: 2.50 mg/L (≈ 9.05 µM)
IC50 [20]: 0.88 mg/L (≈ 3.19 µM)
IC90 [20]: 4.17 mg/L (≈ 15.1 µM)
IC50 [21]: 0.99 mg/L (≈ 3.58 µM)
IC90 [21]: 3.62 mg/L (≈ 13.1 µM)
IC50 [22]: 1.74 mg/L (≈ 6.3 µM)
IC90 [22]: 8.42 mg/L (≈ 30.5 µM)
Compound: Cc1coc2c1C(=O)C(=O)c1c-2ccc2c(C)cccc12 [TA, 1,6-dimethyl-phenanthreno [1,2-b]furan-10,11-diketone, reference compound]
growth of SGC-7901 cells cultured in vitro [16]: significant inhibitory effect
solubility in water [17]: poor solubility in water
in vivo bioavailability [23]: low in vivo bioavailability
tumor growth in tumor-bearing nude mice [24]: can inhibit the tumor growth in the mice
proliferation of Hep G2 cells [25]: can inhibit the proliferation of Hep G2 cells

Reference: patent publication US9328083B2, “2-aminated methylene or 2-esterified methylene tanshinone derivatives, and preparation method and application thereof” (HANGZHOU BENSHENG PHARMACEUTICAL CO., LTD., priority 2011, dated 2016)
